Assay results taken from EP4197333A1, “METHOD FOR C[…] RESISTANT PESTS & COMPOUNDS THEREFOR” (Syngenta Crop Protection AG, priority 2021, dated 2023).
In brackets after ≈: the same amount, converted by molar mass.

Test system: sensitive Plutella strain
Assay: Control of sensitive Plutella strain
Type: in vivo
Conditions: 80% control, on average, read-out: concentration controlling the sensitive Plutella strain at 80%

## CNC(=O)c1cc(Cl)cc(C)c1NC(=O)c1cc(Br)nn1-c1ncccc1Cl [chlorantraniliprole]
  EC80: 0.25 µg/mL (≈ 0.517 µM)
